Experimental findings from US12529017B2, “Detergent composition comprising a lipase” (Novozymes A/S, priority 2020, dated 2026) are described below.

This assay is described as follows: Butyric acid release (odor) from lipase washed butter swatches by SPME-GC, Model E1 detergent. The protocol: The butyric acid release (odor) from the lipase washed swatches were measured by Solid Phase Micro Extraction Gas Chromatography (SPME-GC) using the following method.
40 mL of Model E1 detergent wash liquor was added to a 50 mL test tube. CS-10 butter swatches (CFT) were prepared from 5×5 cm swatches as round punch-outs with a 2-cm diameter. The butter swatches were prepared using methods similar to those described in Example 1. Lipase and methyl ricinoleate (Sigma-Aldrich R8750) were added to the tubes according to the table below, followed by the addition of 10 steel balls and 2 CS-10 swatches per tube. The tubes were continuously agitated at 40 rpm for 25 minutes at 20° C. The samples were then rinsed with cold water for 5 min and finally dried on filter paper for 16 hours.
The dried CS-10 swatches were transferred to Gas Chromatograph (GC) vials, which were then sealed. The samples were incubated at 30° C. for 24 hours, heated to 140° C. for 30 minutes, and stored at 20-25° C. for at least 4 hours before analysis. The analyses were performed on a Shimadzu Nexis GC-2030 equipped with a Carboxen PDMS SPME fiber (85 μm). Sampling from each GC vial was performed at 50° C. for 8 minutes with the SPME fiber in the head-space over the textile pieces as the sampled compounds were subsequently injected onto the column (injector temperature=250° C. Column flow=2 mL helium/minute. Column over temperature gradient: 0 minute=50° C., 2 minutes=50° C., 6 minutes 45 seconds=240° C.). Detection was performed using a Flame Ionization Detector (FID). Retention time for butyric acid was identified using an authentic standard. The area of each peak was measured and compared to the area of the reference peak (Lipase 2, no methyl ricinoleate). The data presents the peak sizes as the % peak size relative to the corresponding peak size from the Lipase 2 alone wash conditions. The experiment was performed twice. The Coefficient of Variation (CV) was 5%.

Take `CCCCCC[C@@H](O)C/C=C\CCCCCCCC(=O)OC` [Methyl ricinoleate, methyl ricinoleate]: the “Butyric acid peak size normalized to lipase alone (%)” value was 88% (methyl ricinoleate 1 mM, with Lipase 2, 25 minutes at 20° C.); 0% (methyl ricinoleate 1 mM, without Lipase 2, 25 minutes at 20° C.); 89% (methyl ricinoleate 5 mM, with Lipase 2, 25 minutes at 20° C.); 0% (methyl ricinoleate 5 mM, without Lipase 2, 25 minutes at 20° C.).

B1: Lipase 2: Thermomyces lanuginosus lipase (TLL) SEQ ID NO: 1 with substitutions E1C+D27R+G38A+F51V+D96E+K981+D111A+G163K+H198S+Y220F+T231R+N233C+D254S+P256T (Novozymes A/S) (protein, listed as Thermomyces lanuginosus)
chain: CVSQDLFNQFNLFAQYSAAAYCGKNNRALAGTNITCTANACPEVEKADATVLYSFEDSGVGDVTGFLALDNTNKLIVLSFRGSRSIENWIGNLNFELIEINDICSGCRGHAGFTSSWRSVADTLRQKVEDAVREHPDYRVVFTGHSLGGALATVAGADLRGNKYDIDVFSYGAPRVGNRAFAEFLTVQTGGTLYRITSTNDIVPRLPPREFGYSHSSPEFWIKSGTLVLVRRCDIVKIEGIDATGGNNQPNIPSITAHLWYFGLIGTCL
modifications: mat_peptide (1)..(269)
On to B1, for which, where the note is “Lipase 2 alone, no methyl ricinoleate (reference peak), 25 minutes at 20° C.”, the “Butyric acid peak size normalized to lipase alone (%)” value was determined as 100%.
